# Measured values as given in US7662864B2, “Solution polymerization processes to prepare a polymer that degrades to release a physiologically active agent” (Rutgers, The State University of New Jersey, priority 2003, dated 2010).
# Read-outs that look alike come from different tables or passages of the source.
# What was measured:
# [1] = cited from earlier work
# [2] = cited from earlier work; for Plasma Levels (Anti-Inflammatory Effectiveness): Clinical Use
# [3] = test system: Rat; conditions: in vivo; cited from earlier work
# [4] = Plasma diflunisal in rats after subcutaneous polydiflunisal microspheres; type: in vivo; conditions: single oral dose
# Text: Processes for making nanoparticle formulations are also known in the art, and need not be fully described in this patent. The surface eroding property of polymers such as polydiflunisal makes for solid, non-porous particles, e.g. nano- and micro-spheres, useful for sustained drug delivery, and their release duration may be controlled by varying particle diameter, e.g. larger microparticles biodegrade more slowly than smaller ones. Nano- and microparticles for pharmaceutical formulations may be designed to deliver an agent(s) or compound(s) incorporated into the polymer backbone and optionally an agent(s) blended, appended to, or dispersed in the polymer. […] Microparticle formulations of about 1, 2, 5, 7.5, 10, 25, 50 to about 10, 15, 30, 50, 75, 100, 250 μm are suitable for use in a pharmaceutical, veterinary or other type of formulations. Similarly, nanoparticle formulations may be administered for various applications, having a particle size about 1, 2, 5, 10 to about 15, 20, 30, 50, 100, 250, 500 nm, or various ranges between any two of these values. […] While the injection of a drug or biological agent carried by a polymer of the invention, e.g. a polyNSAID, may be expected to generate significant drug, e.g. NSAID, concentrations in tissues near the injection site, their systemic levels in most cases will remain less than about […], which are far below therapeutic levels. […]
# [5] = test system: chronically-inflamed tissue; conditions: cited from earlier work
structure (smiles),measurement,setting,value
O=C(O)c1ccccc1O [Salicylic Acid],Water Solubility,[1],High
same,Plasma Levels (Anti-Inflammatory Effectiveness),[2],150 to 300 µg/mL
O=C(O)CCCCCCCCC(=O)O [Sebacic Acid],Rat Oral LD50,[3],"14,470 mg/kg"
"O=C(O)c1cc(-c2ccc(F)cc2F)ccc1O [Diflunisal, 5-(2,4-difluorophenyl)-salicylic acid]",course of drug level,[4],declined rapidly
same,Water Solubility,[1],Very Low
same,Plasma Levels (Anti-Inflammatory Effectiveness),[2],50 to 190 µg/mL
same,No. Metabolites,[2]; in vivo,2
same,Plasma half-life,[2]; in vivo,8 to 12 h
same,Where Metabolized,[2]; in vivo,"Liver, Intestine"
CN1CC[C@]23c4c5ccc(O)c4O[C@H]2[C@@H](O)C=C[C@H]3[C@H]1C5 [morphine],pain relief,[5]; 1 mg injected into chronically-inflamed gum tissue,profound pain relief
same,pain relief,[5]; 3 mg intra-articular injection in RA patients,pain relief similar to that of 4 mg dexamethasone
